Holding throughout (assay): FFA sulfoconjugation assay (N6-MF-A formation with adenosine as scavenger)
Common to all, as to assay type: biochemical

For one experiment, the target named is T1, rSult2a3 (Rattus norvegicus, UniProt P22789).
T1 construct: made in house; host or cells: Salmonella typhimurium TA1538 (cytosolic fraction, enzyme not purified)
T1 sequence (P22789 2-284 limits assumed): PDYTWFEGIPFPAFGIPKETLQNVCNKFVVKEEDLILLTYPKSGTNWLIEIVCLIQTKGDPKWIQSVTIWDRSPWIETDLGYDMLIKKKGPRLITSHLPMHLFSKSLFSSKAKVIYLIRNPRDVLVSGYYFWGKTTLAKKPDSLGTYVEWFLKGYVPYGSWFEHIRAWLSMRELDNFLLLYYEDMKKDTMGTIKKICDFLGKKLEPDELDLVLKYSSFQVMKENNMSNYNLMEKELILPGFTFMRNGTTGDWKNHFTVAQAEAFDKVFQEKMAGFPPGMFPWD
The protocol:
(§1) Cytosolic fractions containing individual SULT forms were prepared from transgenic S. typhimurium TA1538. Table S1 in the Supplementary Material provides a summary of the thirty SULTs used in the current study together with references describing the cloning of the respective S. typhimurium TA1538 strains. The expressed SULT forms are denoted with the prefixes h, m and r for human, mouse and rat enzymes, respectively. Bacteria were grown in Luria Broth medium containing ampicillin (100 µg/ml) by stirring for 8 h at 200 revolutions/min at 37 °C. The bacterial suspensions were centrifuged at 5,000 g for 10 min. The sediments were washed twice with 25 ml of 10 mM potassium phosphate buffer (pH 7.4)/50 mM potassium chloride (KCP buffer) and centrifuged again. The pellets were taken up in 800 µl KCP buffer and sonicated thrice for 15 s with 30 s pauses in between. The soluble fraction was attained by centrifuging for 1 h at 100,000 g. The supernatants (in the following termed cytosolic preparations) were frozen at −80 °C. The protein concentrations were determined according to a bicinchoninic acid (BCA) assay protocol. The SULT concentrations in the cytosolic preparations were estimated after electrophoretic separation and immunodetection using inclusion bodies of different SULT forms as standards (Teubner et al. [2007]). The preparation of SULT inclusion bodies and the immunodetection of SULTs is described in the Supplementary Material, which also contains a representative immunoblot of different amounts of rSult1a1standard and a cytosolic preparation of S. typhimurium expressing rSult1a1 (Fig. S1).
(§2) The reaction mixtures were prepared as described for HMF. In addition, they contained 10 mM adenosine as a nucleophilic scavenger. Following incubation for 20 min at 37 °C, sulfoconjugation reactions were stopped by adding 100 µl cold methanol containing 175 fmol of [^15N5]N ^6-MF-A as the internal standard, mixed and centrifuged at 15,000 g for 10 min. The clear supernatants were subjected to UPLC-MS/MS analyses. Incubations were performed as quadruplicates. At higher concentrations, FFA reacts spontaneously with adenosine at low, but detectable, levels. To correct for the SULT-independent adduct formation, mixtures with SULT-deficient cytosols were carried along simultaneously in duplicate. Controls were subtracted from the experimental samples.
(§3) The ribonucleoside adduct N ^6-((furan-2-yl)methyl)-adenosine (N ^6-MF-A) was analyzed by isotope-dilution UPLC-MS/MS with the same system described above using a HSS T3 column (1.8 µm, 2.1 × 100 mm, Waters). Samples of 8 µl were eluted with 10 mM ammonium bicarbonate buffer, pH 8.0 (A) and methanol (B) using an 6-min gradient from 98 % solvent A to 15 % solvent A at 0.35 ml/min flow rate (Yin et al. [2013]). The electrospray interface of the mass spectrometer operated in the positive ion mode. The fragmentations of N ^6-MF-A into the aglycone cation [N ^6-((furan-2-yl)methyl)-adenine-H]^+ (m/z = 348.1 → 216.1), the cleavage of the 2-methylfuranyl cation (m/z = 348.1 → 81.0) and the release of [N ^6-methyl-adenine-H]^+ (m/z = 348.1 → 148.0) were monitored together with the corresponding fragmentations of the isotope-labeled internal standard [^15N5]N ^6-MF-A for the formation of the aglycone (m/z = 353.1 → 221.1), the 2-methylfuran cation (m/z = 353.1 → 81.0) and ^15N5-labeled N ^6-methyl-adenine (m/z = 353.1 → 153.0). The N ^6-MF-A content of the incubation mixture was calculated from the ratio of peak areas resulting from the total ion current of all three MRM signals of the analyte. For the fragmentation of N ^6-MF-A ([^15N5]N ^6-MF-A), collision energies were 20, 25 and 35 eV for the transitions m/z = 348.1 → 216.1 (m/z = 353.1 → 221.1), m/z = 348.1 → 148.0 (m/z = 353.1 → 153.0) and m/z = 348.1 → 81.0 (m/z = 353.1 → 81.0), respectively. […]

The next experiment deals with T2, hSULT2A1 (Homo sapiens, UniProt Q06520).
T2 construct: made in house; host or cells: Salmonella typhimurium TA1538 (cytosolic fraction, not purified)
T2 sequence (Q06520 1-285): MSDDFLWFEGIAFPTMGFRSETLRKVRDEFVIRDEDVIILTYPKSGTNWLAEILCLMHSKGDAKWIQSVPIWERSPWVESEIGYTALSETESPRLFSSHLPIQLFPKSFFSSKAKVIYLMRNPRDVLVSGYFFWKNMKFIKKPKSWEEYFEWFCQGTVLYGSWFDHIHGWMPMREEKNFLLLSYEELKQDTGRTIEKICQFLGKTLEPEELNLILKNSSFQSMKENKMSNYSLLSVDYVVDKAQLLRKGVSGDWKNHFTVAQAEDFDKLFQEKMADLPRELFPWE
As to the method: as §1, §2, §3

Another experiment concerns the target T3, mSult1e1 (Mus musculus, UniProt P49891).
T3 construct: made in house; host or cells: Salmonella typhimurium TA1538 (cytosolic fraction, enzyme not purified)
T3 sequence (P49891 1-295): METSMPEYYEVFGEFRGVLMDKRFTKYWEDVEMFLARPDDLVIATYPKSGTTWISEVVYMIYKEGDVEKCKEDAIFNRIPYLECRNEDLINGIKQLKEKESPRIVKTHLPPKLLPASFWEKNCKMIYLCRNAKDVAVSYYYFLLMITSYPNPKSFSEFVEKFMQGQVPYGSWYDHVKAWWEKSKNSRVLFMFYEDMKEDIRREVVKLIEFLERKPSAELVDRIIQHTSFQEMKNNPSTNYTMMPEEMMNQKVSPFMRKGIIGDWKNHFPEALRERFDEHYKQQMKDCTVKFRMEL
As to the method: as §1, §2, §3

Marks after values point to notes of the source that are not given here. A value given as a limit tells only on which side of the number the result lay.

On to `OCc1ccco1` [FFA, furfuryl alcohol], for which the “Rate of N6-MF-A formation” value on rSult2a3 (0.1 mM FFA) was 48.3 ± 1.3 fmol N ^6-MF-A/mg/min; on rSult2a3 (1 mM FFA) it was 461 ± 8 fmol N ^6-MF-A/mg/min; on rSult2a3 (10 mM FFA) it was 3,420 ± 30 fmol N ^6-MF-A/mg/min; at hSULT2A1 (0.1 mM FFA), under 18 fmol N ^6-MF-A/mg/min; on hSULT2A1 (1 mM FFA), 37.0 ± 0.6 fmol N ^6-MF-A/mg/min; at hSULT2A1 (10 mM FFA) it was 386 ± 6 fmol N ^6-MF-A/mg/min. The figures for the “Rate of N6-MF-A formation” value on mSult1e1 (0.1 mM FFA), at mSult1e1 (1 mM FFA) and on mSult1e1 (10 mM FFA) were under 18 fmol N ^6-MF-A/mg/min, 49.3 ± 1.2 fmol N ^6-MF-A/mg/min and 425 ± 3 fmol N ^6-MF-A/mg/min, respectively. Besides, on hSULT2A1 (1 mM FFA, corrected by SULT concentration reported in Meinl et al. [2006]), the “Rate of N6-MF-A formation (corr.)” value is given as 2,110 ± 40^b fmol N ^6-MF-A/mg/min.

The values above are taken from paper PMC4710668, “Bioactivation of food genotoxicants 5-hydroxymethylfurfural and furfuryl alcohol by sulfotransferases from human, mouse and rat: a comparative study” (Archives of Toxicology, 2014).
